Where two headings read alike, the source gives them in different places.

The text below walks through data of patent US8580829B2 (Boehringer Ingelheim International GmbH, priority 2010, dated 2013).

Experiment [1] concerns synthesis of LTB4 in human whole blood. Description: human whole blood LTB4 production inhibition assay. The experiment is classed as cell-based. To be noted: heparinized human whole blood, calcimycin 20 μM, read-out: hWB LTB4 IC50. The procedure, abridged: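 Heparinized human whole blood preincubated with compound 15 min at 37 °C, then stimulated with calcimycin (20 μM final) for 30 min at 37 °C. Plasma LTB4 measured after low-speed centrifugation by antibody-based homogeneous time-resolved fluorescence.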

Experiment [2] concerns the target T1, recombinant human FLAP protein (Homo sapiens, UniProt P20292).
T1 construct: made in house; host or cells: Sf9 insect cells (100,000 x g membrane fraction)
T1 sequence (P20292 1-161): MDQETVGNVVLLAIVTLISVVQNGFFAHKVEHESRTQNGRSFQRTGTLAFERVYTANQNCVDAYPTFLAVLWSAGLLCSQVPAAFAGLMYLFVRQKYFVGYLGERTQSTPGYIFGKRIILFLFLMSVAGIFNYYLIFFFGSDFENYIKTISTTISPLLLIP
Put plainly: FLAP binding assay (Scintillation Proximity Assay, displacement of [125I]L-691,831). The note with it: recombinant human FLAP membranes, [125I]L-691,831 probe; read-out: FLAP SPA IC50. In short, it runs like this: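 WGA scintillation proximity beads were stirred 1 h with 5 μg of FLAP-containing membrane protein. The membranes came from baculovirus Sf9 cells, Dounce-lysed and spun to a 100,000×g pellet in buffer at pH 7.5.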
(In general: SPA uses beads or plates that emit light when radiolabelled molecules are held near them.)

In the case of `Nc1ncc(-c2ccc(C3(c4noc(-c5cnc(Cl)cn5)n4)CCC3)cc2)cn1` [Example 187, 5-(4-{1-[5-(5-chloro-pyrazin-2-yl)-1,2,4-oxadiazol-3-yl]-cyclobutyl}-phenyl)-pyrimidin-2-ylamine], the IC50 (commonly the point on the concentration scale where inhibition reaches its midpoint) in experiment [1] (Homo sapiens) was found to be 3400 nM; in experiment [2] it was 8.4 nM.
On to `CN(C)C(=O)Cn1cc(-c2nc(C3(c4ccc(-c5cnc(N)nc5)cc4)CCC3)no2)cn1` [Example 188, 2-[4-(3-{1-[4-(2-amino-pyrimidin-5-yl)-phenyl]-cyclobutyl}-1,2,4-oxadiazol-5-yl)-pyrazol-1-yl]-N,N-dimethyl-acetamide], for which the IC50 in experiment [1] (Homo sapiens) amounted to 81 nM; in experiment [2], 6.2 nM.
For `Nc1ncc(-c2ccc(C3(c4noc(-c5cocn5)n4)CCC3)cc2)cn1` [Example 189, 5-{4-[1-(5-Oxazol-4-yl-1,2,4-oxadiazol-3-yl)-cyclobutyl]-phenyl}-pyrimidin-2-ylamine] the same measures were 310 nM and 8.1 nM.
For `Nc1ncc(-c2ccc(C3(c4noc(-c5ccc6[nH]ncc6c5)n4)CCC3)cc2)cn1` [Example 190, 5-(4-{1-[5-(1H-Indazol-5-yl)-1,2,4-oxadiazol-3-yl]-cyclobutyl}-phenyl)-pyrimidin-2-ylamine] the same measures were 27 nM and 1.2 nM.
For `Nc1ncc(-c2ccc(C3(c4noc(-c5cc(Cl)c[nH]c5=O)n4)CCC3)cc2)cn1` [Example 191, 3-(3-{1-[4-(2-Amino-pyrimidin-5-yl)-phenyl]-cyclobutyl}-1,2,4-oxadiazol-5-yl)-5-chloro-1H-pyridin-2-one] the same measures were > 5000 nM and 2.6 nM.
`Cc1ccc(-c2nc(C3(c4ccc(-c5cnc(N)nc5)cc4)CCC3)no2)c(=O)[nH]1` [Example 192, 3-(3-{1-[4-(2-Amino-pyrimidin-5-yl)-phenyl]-cyclobutyl}-1,2,4-oxadiazol-5-yl)-6-methyl-1H-pyridin-2-one]: the results for the IC50 in experiment [1] (Homo sapiens) and in experiment [2] were > 5000 nM and 1.7 nM, respectively.
`Nc1cnc(-c2nc(C3(c4ccc(-c5cnc(N)nc5)cc4)CCC3)no2)cn1` [Example 193, 5-(4-{1-[5-(5-Amino-pyrazin-2-yl)-1,2,4-oxadiazol-3-yl]-cyclobutyl}-phenyl)-pyrimidin-2-ylamine]: the IC50 came to 45 nM in experiment [1] (Homo sapiens) and 1.6 nM in experiment [2].
`Nc1ncc(-c2ccc(C3(c4noc(-c5cnc(N6CCC[C@H]6CO)cn5)n4)CCC3)cc2)cn1` [Example 194, {(S)-1-[5-(3-{1-[4-(2-Amino-pyrimidin-5-yl)-phenyl]-cyclobutyl}-1,2,4-oxadiazol-5-yl)-pyrazin-2-yl]-pyrrolidin-2-yl}-methanol]: the IC50 in experiment [1] (Homo sapiens) came out at 85 nM; in experiment [2], 3 nM.
For `Nc1ncc(-c2ccc(C3(c4noc(-c5cnc(N6CCC[C@@H]6CO)cn5)n4)CCC3)cc2)cn1` [Example 195, {(R)-1-[5-(3-{1-[4-(2-Amino-pyrimidin-5-yl)-phenyl]-cyclobutyl}-1,2,4-oxadiazol-5-yl)-pyrazin-2-yl]-pyrrolidin-2-yl}-methanol] the same measures were 140 nM and 2.9 nM.
The matching figures for `CNc1cnc(-c2nc(C3(c4ccc(-c5cnc(N)nc5)cc4)CCC3)no2)cn1` [Example 196, 5-(4-{1-[5-(5-Methylamino-pyrazin-2-yl)-1,2,4-oxadiazol-3-yl]-cyclobutyl}-phenyl)-pyrimidin-2-ylamine]: 24 nM and 2.1 nM.
The matching figures for `CC(C)Nc1cnc(-c2nc(C3(c4ccc(-c5cnc(N)nc5)cc4)CCC3)no2)cn1` [Example 197, 5-(4-{1-[5-(5-Isopropylamino-pyrazin-2-yl)-1,2,4-oxadiazol-3-yl]-cyclobutyl}-phenyl)-pyrimidin-2-ylamine]: 48 nM and 1.5 nM.
`COCCN(C)c1cnc(-c2nc(C3(c4ccc(-c5cnc(N)nc5)cc4)CCC3)no2)cn1` [Example 198, 5-{4-[1-(5-{5-[(2-Methoxy-ethyl)-methyl-amino]-pyrazin-2-yl}-1,2,4-oxadiazol-3-yl)-cyclobutyl]-phenyl}-pyrimidin-2-ylamine]: the IC50 in experiment [1] (Homo sapiens) was 57 nM; in experiment [2] it was 2 nM.
The matching figures for `CCOC(=O)CNc1cnc(-c2nc(C3(c4ccc(-c5cnc(N)nc5)cc4)CCC3)no2)cn1` [Example 199, [5-(3-{1-[4-(2-Amino-pyrimidin-5-yl)-phenyl]-cyclobutyl}-1,2,4-oxadiazol-5-yl)-pyrazin-2-ylamino]-acetic acid ethyl ester]: 42 nM and 1 nM.
The matching figures for `CC(O)CNc1cnc(-c2nc(C3(c4ccc(-c5cnc(N)nc5)cc4)CCC3)no2)cn1` (stereo not shown) [Example 200, 1-[5-(3-{1-[4-(2-Amino-pyrimidin-5-yl)-phenyl]-cyclobutyl}-1,2,4-oxadiazol-5-yl)-pyrazin-2-ylamino]-propan-2-ol]: 67 nM and 1.5 nM.
`Nc1ncc(-c2ccc(C3(c4noc(-c5cnc(N6CCNC(=O)C6)cn5)n4)CCC3)cc2)cn1` [Example 201, 5′-(3-{1-[4-(2-Amino-pyrimidin-5-yl)-phenyl]-cyclobutyl}-1,2,4-oxadiazol-5-yl)-5,6-dihydro-4H-1,2′-bipyrazinyl-3-one]: the results for the IC50 in experiment [1] (Homo sapiens) and in experiment [2] were 400 nM and 2.3 nM, respectively.
The matching figures for `CS(=O)(=O)N1CCN(c2cnc(-c3nc(C4(c5ccc(-c6cnc(N)nc6)cc5)CCC4)no3)cn2)CC1` [Example 202, 5-(4-{1-[5-(4-Methanesulfonyl-3,4,5,6-tetrahydro-2H-1,2′-bipyrazinyl-5′-yl)-1,2,4-oxadiazol-3-yl]-cyclobutyl}-phenyl)-pyrimidin-2-ylamine]: 70 nM and 2.6 nM.
For `CS(=O)(=O)C1CCN(c2cnc(-c3nc(C4(c5ccc(-c6cnc(N)nc6)cc5)CCC4)no3)cn2)C1` (stereo not shown) [Example 203, 5-[4-(1-{5-[5-(3-Methanesulfonyl-pyrrolidin-1-yl)-pyrazin-2-yl]-1,2,4-oxadiazol-3-yl}-cyclobutyl)-phenyl]-pyrimidin-2-ylamine] the same measures were 130 nM and 1.9 nM.
Take `CCNC(=O)Cn1cc(-c2nc(C3(c4ccc(-c5cnc(N)nc5)cc4)CCC3)no2)cn1` [Example 204, 2-[4-(3-{1-[4-(2-Amino-pyrimidin-5-yl)-phenyl]-cyclobutyl}-[1,2,4]oxadiazol-5-yl)-pyrazol-1-yl]-N-ethyl-acetamide]: the values for the IC50 in experiment [1] and in experiment [2] were 75 nM and 4.5 nM, respectively.
The matching figures for `CCN(C)C(=O)Cn1cc(-c2nc(C3(c4ccc(-c5cnc(N)nc5)cc4)CCC3)no2)cn1` [Example 206, 2-[4-(3-{1-[4-(2-Amino-pyrimidin-5-yl)-phenyl]-cyclobutyl}-[1,2,4]oxadiazol-5-yl)-pyrazol-1-yl]-N-ethyl-N-methyl-acetamide]: 38 nM and 4.3 nM.
As to `CC(C)NC(=O)Cn1cc(-c2nc(C3(c4ccc(-c5cnc(N)nc5)cc4)CCC3)no2)cn1` [Example 208, 2-[4-(3-{1-[4-(2-Amino-pyrimidin-5-yl)-phenyl]-cyclobutyl}-[1,2,4]oxadiazol-5-yl)-pyrazol-1-yl]-N-isopropyl-acetamide], the IC50 was determined as 52 nM in experiment [1] (Homo sapiens) and 2.8 nM in experiment [2].
